Reference: US5800838A, “Composition that inhibits or destroys at least one unicellular living organism containing fluorine F- and Lithium li+” (priority 1987, dated 1998)
Like-named read-outs stand apart in the source and are kept apart here.

Legend:
Pseudomonas aeruginosa [1] = assay: MIC of antibiotics by microdilution in liquid medium on plates (Example 18); assay type: cell-based; details: Pseudomonas aeruginosa
Method: The unicellular living organism chosen for the trials is Pseudomonas aeruginosa (wild-type strain originating from hospital sources).
The same methodology as for Examples 11 and 12 was follows. Bacteriostatic analyses were performed with a number of antibiotics belonging to benzylpenicillins, and aminopenicillins, and first and second generation cephalosporins, namely:
The determination of the MIC was carried out by the microdilution method in liquid medium on plates. Aqueous solutions of each antibiotic are prepared in MUELLER HINION broth, to obtain dilutions in a geometric ratio of 2. The solvent is sterile double-distilled water.
The preparation of the bacterial inoculum is made with a culture of Pseudomonas aeruginosa, with agitation on a water bath at 37° C. for 4 to 6 hours, giving 10^6 bacteria/ml.
Three trials were performed per antibiotic and per bacterial inoculum. The trials were performed first with the antibiotics alone (trials a).sctn., and then with the addition of a dose of 1 mg/l of an aqueous solution of lithium fluoride (trials b).sctn. to the dilution of each one in every cup of every plate.

Pseudomonas aeruginosa [2] = assay: Resistance of Pseudomonas aeruginosa to antiseptics in terms of water hardness and proteins; assay type: cell-based;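 note: R means colony growth observed and S means no significant growth; key: R: resistant (a growth of colonies was observed); S: sensitive (no significant growth was observed)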
Method: The resistance of Pseudomonas aeruginosa to various reputedly bactericidal active principles or commercial antiseptics was studied in terms of the hardness of the water and the presence or absence of proteins. The same trial was carried out on the foaming paste according to the invention (see Example 15).

[3] = + LiF 1 mg/l, strain lic R βLac^+ OXA, read-out: MIC (average MIC value)
[4] = + LiF 1 mg/l, strain lic R βLac^+ PSE, read-out: MIC (average MIC value)
[5] = + LiF 1 mg/l, strain lic R βLac^+ TEM, read-out: MIC (average MIC value)
[6] = + LiF 1 mg/l, strain lic R βLac^+ cephalosporinase, read-out: MIC (average MIC value)
[7] = + LiF 1 mg/l, strain lic S βLac^- (first column), read-out: MIC (average MIC value)
[8] = + LiF 1 mg/l, strain lic S βLac^- (second column), read-out: MIC (average MIC value)
[9] = alone, strain lic R βLac^+ OXA, read-out: MIC (average MIC value)
[10] = alone, strain lic R βLac^+ PSE, read-out: MIC (average MIC value)
[11] = alone, strain lic R βLac^+ TEM, read-out: MIC (average MIC value)
[12] = alone, strain lic R βLac^+ cephalosporinase, read-out: MIC (average MIC value)
[13] = alone, strain lic S βLac^- (first column), read-out: MIC (average MIC value)
[14] = alone, strain lic S βLac^- (second column), read-out: MIC (average MIC value)

SMILES | MIC (Pseudomonas aeruginosa [1]; [3]) [µg/mL] | MIC (Pseudomonas aeruginosa [1]; [4]) [µg/mL] | MIC (Pseudomonas aeruginosa [1]; [5]) [µg/mL] | MIC (Pseudomonas aeruginosa [1]; [6]) [µg/mL] | MIC (Pseudomonas aeruginosa [1]; [7]) [µg/mL] | MIC (Pseudomonas aeruginosa [1]; [8]) [µg/mL] | MIC (Pseudomonas aeruginosa [1]; [9]) [µg/mL] | MIC (Pseudomonas aeruginosa [1]; [10]) [µg/mL] | MIC (Pseudomonas aeruginosa [1]; [11]) [µg/mL] | MIC (Pseudomonas aeruginosa [1]; [12]) [µg/mL] | MIC (Pseudomonas aeruginosa [1]; [13]) [µg/mL] | MIC (Pseudomonas aeruginosa [1]; [14]) [µg/mL] | also measured
CC1(C)S[C@@H]2[C@H](NC(=O)[C@H](NC(=O)c3cnc4cccnc4c3O)c3ccccc3)C(=O)N2[C@H]1C(=O)O [APALCILLIN, apalcillin] | 32 | 32 | 8 | 16 | 2 | 8 | 32 | 64 | 16 | 16 | 4 | 16 | 
CC(C)(O/N=C(\C(=O)N[C@@H]1C(=O)N2C(C(=O)[O-])=C(C[n+]3ccccc3)CS[C@H]12)c1csc(N)n1)C(=O)O [CAFTAZIDIME, ceftazidime] |  |  |  |  |  |  |  |  |  |  |  |  | MIC (Pseudomonas aeruginosa [1]; read-out: MIC (average MIC value), + LiF 1 mg/l, strain lic R βLac^+ OXA): 4 µg/mL; MIC (Pseudomonas aeruginosa [1]; read-out: MIC (average MIC value), + LiF 1 mg/l, strain lic R βLac^+ PSE): 2 µg/mL; MIC (Pseudomonas aeruginosa [1]; read-out: MIC (average MIC value), + LiF 1 mg/l, strain lic R βLac^+ TEM): 4 µg/mL; MIC (Pseudomonas aeruginosa [1]; read-out: MIC (average MIC value), + LiF 1 mg/l, strain lic R βLac^+ cephalosporinase): 32 µg/mL; MIC (Pseudomonas aeruginosa [1]; read-out: MIC (average MIC value), + LiF 1 mg/l, strain lic S βLac^- (first column)): 2 µg/mL; MIC (Pseudomonas aeruginosa [1]; read-out: MIC (average MIC value), + LiF 1 mg/l, strain lic S βLac^- (second column)): 4 µg/mL; MIC (Pseudomonas aeruginosa [1]; read-out: MIC (average MIC value), alone, strain lic R βLac^+ OXA): 4 µg/mL; MIC (Pseudomonas aeruginosa [1]; read-out: MIC (average MIC value), alone, strain lic R βLac^+ PSE): 2 µg/mL; MIC (Pseudomonas aeruginosa [1]; read-out: MIC (average MIC value), alone, strain lic R βLac^+ TEM): 4 µg/mL; MIC (Pseudomonas aeruginosa [1]; read-out: MIC (average MIC value), alone, strain lic R βLac^+ cephalosporinase): 32 µg/mL; MIC (Pseudomonas aeruginosa [1]; read-out: MIC (average MIC value), alone, strain lic S βLac^- (first column)): 4 µg/mL; MIC (Pseudomonas aeruginosa [1]; read-out: MIC (average MIC value), alone, strain lic S βLac^- (second column)): 4 µg/mL
C=O [Formaldehyde] |  |  |  |  |  |  |  |  |  |  |  |  | resistance (Pseudomonas aeruginosa [2]; 0.2 ml inoculum, contact time 10 mn, distilled water, P+): S; resistance (Pseudomonas aeruginosa [2]; 0.2 ml inoculum, contact time 10 mn, distilled water, P-): S; resistance (Pseudomonas aeruginosa [2]; 0.2 ml inoculum, contact time 10 mn, hard water, P+): S; resistance (Pseudomonas aeruginosa [2]; 0.2 ml inoculum, contact time 10 mn, hard water, P-): S; resistance (Pseudomonas aeruginosa [2]; 0.4 ml inoculum, contact time 20 mn, distilled water, P+): S; resistance (Pseudomonas aeruginosa [2]; 0.4 ml inoculum, contact time 20 mn, distilled water, P-): S; resistance (Pseudomonas aeruginosa [2]; 0.4 ml inoculum, contact time 20 mn, hard water, P+): S; resistance (Pseudomonas aeruginosa [2]; 0.4 ml inoculum, contact time 20 mn, hard water, P-): S; resistance (Pseudomonas aeruginosa [2]; 0.6 ml inoculum, contact time 30 mn, distilled water, P+): S; resistance (Pseudomonas aeruginosa [2]; 0.6 ml inoculum, contact time 30 mn, distilled water, P-): S; resistance (Pseudomonas aeruginosa [2]; 0.6 ml inoculum, contact time 30 mn, hard water, P+): S; resistance (Pseudomonas aeruginosa [2]; 0.6 ml inoculum, contact time 30 mn, hard water, P-): S

Second part, led by results:

MIC (Pseudomonas aeruginosa [1]; [3]) [µg/mL] | MIC (Pseudomonas aeruginosa [1]; [4]) [µg/mL] | MIC (Pseudomonas aeruginosa [1]; [5]) [µg/mL] | MIC (Pseudomonas aeruginosa [1]; [6]) [µg/mL] | MIC (Pseudomonas aeruginosa [1]; [7]) [µg/mL] | MIC (Pseudomonas aeruginosa [1]; [8]) [µg/mL] | MIC (Pseudomonas aeruginosa [1]; [9]) [µg/mL] | MIC (Pseudomonas aeruginosa [1]; [10]) [µg/mL] | MIC (Pseudomonas aeruginosa [1]; [11]) [µg/mL] | MIC (Pseudomonas aeruginosa [1]; [12]) [µg/mL] | MIC (Pseudomonas aeruginosa [1]; [13]) [µg/mL] | MIC (Pseudomonas aeruginosa [1]; [14]) [µg/mL] | SMILES | also measured
64 | 64 | 64 | 128 | 4 | 32 | 64 | 64 | 64 | 128 | 8 | 32 | CC1(C)S[C@@H]2[C@H](NC(=O)[C@H](NC(=O)N3CCNC3=O)c3ccccc3)C(=O)N2[C@H]1C(=O)O [AZLOCILLIN, azlocillin] | 
16 | 16 | 32 | 64 | 4 | 16 | 16 | 32 | 32 | 64 | 4 | 16 | NC(=O)c1cc[n+](CC2=C(C(=O)O)N3C(=O)[C@@H](NC(=O)[C@@H](c4ccccc4)S(=O)(=O)[O-])[C@H]3SC2)cc1 [CEFSULODIN, cefsulodin] | 
32 | 16 | 32 | 128 | 8 | 16 | 32 | 32 | 32 | 256 | 16 | 32 | CO/N=C(\C(=O)N[C@@H]1C(=O)N2C(C(=O)O)=C(CSc3nc(=O)c(=O)[nH]n3C)CS[C@H]12)c1csc(N)n1 [CEFTRIAXONE, ceftriaxone] | 
